Assay results: ChEMBL document CHEMBL1201862, “PubChem BioAssay data set” (2004)
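96-well plates; 48 h exposure; 5 concentrations. Endpoints by linear interpolation between flanking doses. Not reached: highest tested concentration assigned. Abbreviation: GI50, concentration required for 50% inhibition of growth.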 Calls of active or inactive are those of the source. No stated cut-off is given here; in the data, active = GI50 up to about 1.1 µM and inactive = higher.

Assays:
Assay in all cases: inhibition of tumour cell growth, NCI panel, 48 h
LOX IMVI = test system: LOX IMVI
Malme-3M = test system: Malme-3M
NCI-H460 = test system: NCI-H460
HCT-116 = test system: HCT-116
HOP-92 = test system: HOP-92
RPMI-8226 = test system: RPMI-8226
UACC-62 = test system: UACC-62
ACHN = test system: ACHN
NCI-H226 = test system: NCI-H226
SR = test system: SR
SK-OV-3 = test system: SK-OV-3
HT-29 = test system: HT-29
M14 = test system: M14
NCI-H23 = test system: NCI-H23
NCI-H522 = test system: NCI-H522
786-0 = test system: 786-0
SF-268 = test system: SF-268

Measured: GI50

CCc1nc2c(O)ccc(O)c2nc1C
inactive: LOX IMVI 16.2 µM | Malme-3M 15.8 µM | NCI-H460 19.2 µM | HCT-116 8.38 µM | HOP-92 5.64 µM | RPMI-8226 3.8 µM | UACC-62 14.3 µM | ACHN 10.7 µM | NCI-H226 15.8 µM | SR 18.2 µM | SK-OV-3 20 µM | HT-29 17.2 µM | M14 15 µM | NCI-H23 18.6 µM | NCI-H522 2.56 µM | 786-0 13.5 µM | SF-268 18.7 µM

CCCCCCCCCC1C(C)c2c([nH]c3ccccc23)C2C(=O)N(c3ccccc3)C(=O)C21 (stereo not drawn)
inactive: Malme-3M 41.9 µM | NCI-H460 4.18 µM | HCT-116 2.94 µM | RPMI-8226 3.83 µM | UACC-62 18.3 µM | ACHN 10.8 µM | NCI-H226 12.2 µM | SK-OV-3 18.2 µM | HT-29 10.8 µM | M14 13.1 µM | NCI-H23 3.72 µM | 786-0 12.4 µM

COc1ccc2nc3c(C(=O)NCCN(C)C)cccc3nc2c1
inactive: LOX IMVI 3.34 µM | HCT-116 3.32 µM | HOP-92 4.34 µM | UACC-62 5.55 µM | ACHN 3.94 µM | NCI-H226 6.85 µM | SK-OV-3 9.04 µM | HT-29 4.17 µM | M14 5.56 µM | NCI-H23 4.73 µM | 786-0 7 µM | SF-268 7.36 µM

Cc1cc(NCCCCCCCCNc2cc(C)nc3cc(N)ccc23)c2ccc(N)cc2n1
inactive: LOX IMVI 17.1 µM | NCI-H460 15.7 µM | RPMI-8226 6.68 µM | UACC-62 17 µM | ACHN 37.7 µM | NCI-H226 24.4 µM | SR 10.9 µM | SK-OV-3 38.5 µM | HT-29 21.8 µM | M14 16.7 µM | NCI-H23 14.3 µM | NCI-H522 3.78 µM | 786-0 18.9 µM | SF-268 26.2 µM

O=C1c2cccc(O)c2C(=O)c2cccc(O)c21 [ANTHRARUFIN]
inactive: LOX IMVI > 100 µM | NCI-H460 > 100 µM | HCT-116 > 100 µM | HOP-92 > 100 µM | RPMI-8226 > 100 µM | UACC-62 > 100 µM | ACHN > 100 µM | NCI-H226 > 100 µM | HT-29 > 100 µM | M14 > 100 µM | NCI-H23 > 100 µM | NCI-H522 > 100 µM | 786-0 > 100 µM | SF-268 > 100 µM

Cn1ccc(=NS(=O)(=O)c2ccccc2)cc1
inactive: LOX IMVI > 100 µM | Malme-3M > 100 µM | NCI-H460 > 100 µM | HCT-116 > 100 µM | HOP-92 > 100 µM | RPMI-8226 > 100 µM | ACHN > 100 µM | SK-OV-3 > 100 µM | HT-29 > 100 µM | NCI-H23 > 100 µM | NCI-H522 > 100 µM | 786-0 > 100 µM | SF-268 > 100 µM

Fc1ccc(C2SCc3nc4ccccc4n32)c(F)c1 (stereo not drawn)
inactive: LOX IMVI 81.5 µM | Malme-3M 80.4 µM | NCI-H460 54 µM | HCT-116 54 µM | HOP-92 29.8 µM | RPMI-8226 37.9 µM | UACC-62 64.7 µM | ACHN 82.4 µM | NCI-H226 > 100 µM | SR 34.6 µM | SK-OV-3 > 100 µM | HT-29 81.1 µM | M14 73.1 µM | NCI-H23 46.3 µM | NCI-H522 30.1 µM | 786-0 > 100 µM | SF-268 > 100 µM

CCOC(=O)CN.CCOC(=O)Nc1ccc(S(=O)(=O)OC)cc1.CCOC(=O)Nc1ccc(S(=O)(=O)OC)cc1
inactive: LOX IMVI > 50 µM | Malme-3M > 50 µM | NCI-H460 17.8 µM | HCT-116 > 50 µM | HOP-92 > 50 µM | RPMI-8226 > 50 µM | UACC-62 > 50 µM | ACHN > 50 µM | NCI-H226 > 50 µM | SK-OV-3 > 50 µM | HT-29 > 50 µM | M14 > 50 µM | NCI-H23 > 50 µM | 786-0 > 50 µM | SF-268 > 50 µM

C#CCOCn1cnc2c(Sc3c([N+](=O)[O-])ncn3C)ncnc21
inactive: LOX IMVI > 100 µM | Malme-3M > 100 µM | NCI-H460 > 100 µM | HOP-92 > 100 µM | RPMI-8226 > 100 µM | UACC-62 > 100 µM | ACHN > 100 µM | NCI-H226 > 100 µM | SK-OV-3 > 100 µM | HT-29 > 100 µM | M14 > 100 µM | NCI-H23 > 100 µM | NCI-H522 48.3 µM | 786-0 > 100 µM | SF-268 > 100 µM

Cc1ccc(C2(O)CC(c3ccc([N+](=O)[O-])o3)=NN2C(=O)COc2ccccc2Cl)cc1 (stereo not drawn)
inactive: LOX IMVI 5.45 µM | Malme-3M 13.8 µM | NCI-H460 5.73 µM | HCT-116 5.6 µM | HOP-92 27.4 µM | RPMI-8226 3.53 µM | UACC-62 3.91 µM | ACHN 5.08 µM | NCI-H226 50.5 µM | SR 3.24 µM | SK-OV-3 81.1 µM | HT-29 4.21 µM | M14 8.45 µM | NCI-H23 12.4 µM | NCI-H522 13.1 µM | 786-0 5.75 µM | SF-268 10.5 µM

CC(C(=O)c1ccc(O)cc1)C1(O)C(=O)Nc2c(Cl)cc(Cl)cc21 (stereo not drawn)
inactive: LOX IMVI 24.8 µM | Malme-3M > 100 µM | NCI-H460 > 86.1 µM | HCT-116 43.1 µM | HOP-92 > 100 µM | RPMI-8226 25.6 µM | UACC-62 14 µM | ACHN 16.6 µM | NCI-H226 19.1 µM | SK-OV-3 > 100 µM | HT-29 > 73.8 µM | M14 26.7 µM | NCI-H23 59.8 µM | NCI-H522 23.1 µM | 786-0 48.1 µM | SF-268 > 76.9 µM

CC12OC3CC(O1)C1(C=O)C4CCC5(C)C(c6ccc(=O)oc6)CCC5(O)C4CCC1(C3)O2 (stereo not drawn)
active: LOX IMVI 0.177 µM | Malme-3M 0.198 µM | NCI-H460 0.0518 µM | HCT-116 0.0537 µM | HOP-92 0.339 µM | RPMI-8226 0.0313 µM | UACC-62 0.288 µM | ACHN 0.0476 µM | NCI-H226 0.417 µM | SR 0.0498 µM | SK-OV-3 0.213 µM | HT-29 0.385 µM | M14 0.242 µM | NCI-H522 0.0479 µM | 786-0 0.122 µM | SF-268 0.103 µM

Cc1ccc(O)c(C(=O)CCCC(=O)c2cc(C)ccc2O)c1
inactive: LOX IMVI 57.1 µM | Malme-3M > 100 µM | NCI-H460 > 100 µM | HOP-92 61 µM | RPMI-8226 > 100 µM | UACC-62 > 100 µM | ACHN > 100 µM | NCI-H226 > 100 µM | SK-OV-3 > 100 µM | HT-29 > 100 µM | M14 > 100 µM | NCI-H23 > 100 µM | NCI-H522 63.8 µM | 786-0 38.3 µM | SF-268 > 100 µM

COC(=O)/C(C#N)=C1\CCc2ccccc21
inactive: LOX IMVI > 100 µM | Malme-3M > 100 µM | NCI-H460 > 100 µM | HOP-92 > 100 µM | RPMI-8226 > 100 µM | UACC-62 > 100 µM | ACHN > 100 µM | NCI-H226 > 100 µM | SK-OV-3 > 100 µM | HT-29 > 100 µM | M14 > 100 µM | NCI-H23 > 100 µM | NCI-H522 > 100 µM | 786-0 > 100 µM | SF-268 > 100 µM

COc1cc(CNc2cnc3cc(N)ccc3n2)cc(OC)c1OC
inactive: LOX IMVI 23.9 µM | Malme-3M 52.5 µM | NCI-H460 30.8 µM | HCT-116 18.7 µM | HOP-92 58.5 µM | UACC-62 12.7 µM | ACHN 66.1 µM | SR 5.65 µM | SK-OV-3 20.7 µM | HT-29 16.9 µM | M14 16.4 µM | NCI-H23 28.5 µM | NCI-H522 18.8 µM | 786-0 43.7 µM | SF-268 > 100 µM

N#Cc1c2nc3ccccc3nc2n2ccccc12
active: SK-OV-3 0.63 µM
inactive: LOX IMVI > 100 µM | Malme-3M > 100 µM | NCI-H460 > 100 µM | HCT-116 > 100 µM | RPMI-8226 > 100 µM | UACC-62 > 100 µM | ACHN > 100 µM | SR > 100 µM | M14 > 100 µM | NCI-H23 > 100 µM | NCI-H522 > 100 µM | 786-0 > 100 µM | SF-268 > 100 µM

O=c1c2cccnc2ncn1CCN1CCCCC1
inactive: LOX IMVI > 100 µM | Malme-3M > 100 µM | NCI-H460 > 100 µM | HCT-116 > 100 µM | HOP-92 > 100 µM | UACC-62 > 100 µM | ACHN > 100 µM | NCI-H226 > 100 µM | SR > 100 µM | SK-OV-3 > 100 µM | HT-29 > 100 µM | M14 > 100 µM | NCI-H23 > 100 µM | NCI-H522 > 100 µM | 786-0 > 100 µM | SF-268 > 100 µM

Nc1nc(O)c2c(ncn2CCO)n1
inactive: LOX IMVI > 100 µM | Malme-3M > 100 µM | NCI-H460 > 100 µM | HCT-116 > 100 µM | HOP-92 > 100 µM | RPMI-8226 > 100 µM | UACC-62 > 100 µM | ACHN > 100 µM | NCI-H226 > 100 µM | SR > 100 µM | SK-OV-3 > 100 µM | HT-29 > 100 µM | NCI-H23 > 100 µM | 786-0 > 100 µM | SF-268 > 100 µM
